Measured values from patent US20110195997A1, “Dicarboxamide Derivatives” (priority 2006, published 2011).

Target: T1, human factor Xa (Homo sapiens, UniProt P00742)
T1 construct: Factor Xa is a serine endopeptidase composed of two disulfide-linked subunits; purchased Enzyme Research Laboratories
Assay: chromogenic peptide substrate assay, inhibition of factor Xa
Type: biochemical
Details: human factor Xa 3 nM, chromogenic substrate S-2222, pH 7.8, room temperature; apparent Ki from IC50 by Cheng-Prusoff
Method: Factor Xa activity was measured spectrophotometrically in microtiter plates in a final volume of 150 μl using the following conditions: Inhibition of human factor Xa (Enzyme Research Laboratories) was tested at an enzyme concentration of 3 nM using the chromogenic substrate S-2222 (Chromogenix AB, Mölndal, Sweden) at […]. The reaction kinetics of the enzyme and the substrate were linear with both time and the enzyme concentration. The inhibitors were dissolved in DMSO and tested at various concentrations up to 100 μM. The inhibitors were diluted using HNPT buffer consisting of HEPES 100 mM, NaCl 140 mM, PEG 6000 0.1% and Tween 80 0.02%, pH 7.8. […] The velocity of the reaction was determined by the autoreader from the slope of the linear regression fit to 7 time points (1 minute). The initial velocity for each inhibitor concentration was determined by the slope of at least 4 time points in the linear phase by a linear regression fit […]. Apparent dissociation constants Ki were calculated according to Cheng and Prusoff [Cheng, Y. C.; Prusoff, W. H. Relationship between the inhibition constant (Ki) and the concentration of the inhibitor that causes 50 percent inhibition (IC50) of an enzyme reaction. Biochem. Pharmacol. 1973, 22, 3099-3108.] based on the IC50 and the respective Km, determined previously (Ki=IC50/(1+S/Km)). […]

T1 sequence (P00742 235-488 limits assumed): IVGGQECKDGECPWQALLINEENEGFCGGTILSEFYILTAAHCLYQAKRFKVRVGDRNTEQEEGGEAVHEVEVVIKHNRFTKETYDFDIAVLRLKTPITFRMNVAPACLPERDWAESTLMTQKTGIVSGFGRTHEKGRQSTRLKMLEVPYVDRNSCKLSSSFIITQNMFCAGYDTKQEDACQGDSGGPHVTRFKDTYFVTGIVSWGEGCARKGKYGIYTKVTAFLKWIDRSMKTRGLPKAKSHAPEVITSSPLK
T1 sequence (P00742 41-179 partner limits assumed): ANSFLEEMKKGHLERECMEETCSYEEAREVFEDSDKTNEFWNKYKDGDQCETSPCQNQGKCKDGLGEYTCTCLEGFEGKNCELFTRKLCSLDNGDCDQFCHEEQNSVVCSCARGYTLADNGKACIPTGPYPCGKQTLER

O=C(Nc1ccc(-n2ccccc2=O)cc1F)[C@H]1C[C@H]1C(=O)Nc1ccc(Cl)cn1 (single isomer, unassigned) [Example 1.4 (1S,2R) enantiomer]
Ki: 0.003 µM
